Laboratory results from patent US20250152580A1, “METHODS FOR TREATING IMMUNE DISEASES” (Ascentage Pharma (Suzhou) co., Ltd., priority 2022, published 2025).
“Also recorded” adds a separate entry of the source.

Experiments:
[1] = system: TNBS induced inflammatory bowel disease (IBD) model; test: TNBS induced inflammatory bowel disease (IBD) model in Balb/c mice; assay type: in vivo; settings: for colon weight: vehicle 336.8±25.15 mg; for colon length: vehicle 6.26±0.16 cm; for pathological score (colon, H&E): vehicle 10.33±0.35
From the text: There are two kinds of IBD: Crohn's disease (CD) and ulcerative colitis (UC). TNBS administration results in a preclinical mouse model replicating clinical Crohn's disease.
Female Balb/c mice (8 weeks old) were obtained from Beijing Vital River Laboratory Animal Co. Ltd. Animals were housed and handled in a temperature-controlled environment with a 12-h light/12-h dark cycle. A total of 50 mice were assigned to 5 groups by randomization based on body weight.
On Day 0, the mice weighing 18-20 g were anesthetized with […] (Easycheck, M2910). The mice were further intra-rectally injected 100 μL 1.5% TNBS solution (final concentration 50% ethanol) in the vehicle group and other treatment groups. For the Sham group, the mice were intra-rectally injected with 50% ethanol at the same volume.
Mice in Group 1 and Group 2 were treated with vehicle for 8 days (po, qd, from day −1 to day 6). Mice in Group 3 were treated with 50 mg/kg Cpd. 4 for 8 days (preventive regimen, po, qd, from day −1 to day 6). Mice in Group 4 were treated with 50 mg/kg Cpd. 4 for 6 days (therapeutic regimen, po, qd, from day 1 to day 6). 50 mg/kg Mesalamine was used as positive control which was orally administered to mice in Group 5 for 8 days (preventive regimen, qd, from day −1 to day 6). The protocols and procedures involving the care and use of animals were approved by the Institutional Animal Care and Use Committee (IACUC) at WuxiApptec (Shanghai, China).
Clinical signs of IBD were assessed every day based on the score of disease activity index (DAI) which was evaluated from three parameters using a scoring system from 0 to 4: stool consistency (0, normal stool; 1, soft but still formed stool; 2, soft and not formed stool; 3, very soft and wet stool; 4, watery diarrhea), bleeding score (0, negative hemoccult; 1, weak positive hemoccult; 2, positive hemoccult; 3, blood trace in stool visible; 4, gross rectal bleeding) and body weight loss (0, no body weight loos; 1, 1-5% body weight loss; 2, 6-10% body weight loss; 3, 11-20% body weight loss; 4, >20% body weight loss).
At the end of induction with TNBS (day 7), the animals were euthanized, dissected and the entire colon was quickly removed and gently cleared of feces.
The entire colon was weighed, and the total length was measured. Colon weight gain and shortening is an indirect marker of inflammation. As expected, colon weight induced by TNBS increased to 336.8±25.15 mg. […] The TNBS-induced colon weight increasement were improved by Cpd. 4 treatment (202.4±3.95 mg for 50 mg/kg Cpd. 4 preventive therapy and 214.4±5.17 mg for 50 mg/kg Cpd. 4 therapeutic therapy) (FIG. 2).
At the end of induction with TNBS, the animals were euthanized, and blood was collected immediately by the heart punctures and used for whole blood cell analysis.
At the end of the study (day 7), the cell suspensions from sham control, model control and Cpd. 4 therapeutic treatment groups were obtained from mesenteric lymph nodes (MLN). Cells were stained with the following florescence-labelled antibodies: APC-Cy7-conjugated anti-mouse CD45, BV510-conjugated anti-mouse CD3e, AF700-conjugated anti-mouse CD8a, BUV395-conjugated anti-mouse CD4, BV421-conjugated anti-mouse CD25, FITC-conjugated anti-mouse Foxp3, BV650-conjugated anti-mouse IFN-γ, BV786-conjugated anti-mouse IL-17A, BB700-conjugated anti-mouse TNF-α, APC-conjugated anti-mouse B220, BV395-conjugated anti-mouse CD3e, BV605-conjugated anti-mouse CD11b, BB700-conjugated anti-mouse CD11c, AF488-conjugated anti-mouse MHCII, BV421-conjugated anti-mouse NK1.1, BV510-conjugated anti-mouse Ly6G, PE-Cy7-conjugated anti-mouse CD107a and PE-CF594-conjugated anti-mouse F4/80. All cells were primarily gated on single and live lymphocytes based on forward scatter (FCS), side scatter (SSC) and live/dead staining buffer. Samples were analyzed on a flow cytometer (BD LSRFortessa) to count the percentage of each subtype of lymphocytes. […]

[2] = system: IL-23 induced psoriasis model; test: IL-23 induced psoriasis model in C57BL/6 mice; assay type: in vivo; settings: Cpd. 4 30 mg/kg po qd day 1-14, compared with Vehicle (0.44 mm day 14)
From the text: IL-23 stimulates and promotes differentiation of Th17 cells. IL-23 is a heterodimeric cytokine with two subunits. It drives the Th17 response by its binding and signaling through its receptor subunits. When the IL-23R is activated, it promotes the development of Th17 cells and the resulting production of cytokines such as IL-17A, IL-17F, and IL-22, all which are involved in mediating psoriasiform changes.
C57BL/6 mice (7-8 weeks old) were obtained from Vital River Laboratory Animal Technology Co., Ltd. Animals were housed and handled in a temperature-controlled environment with a 12-h light/12-h dark cycle. A total of 40 mice were assigned to 4 groups by randomization based on body weight.
The first day of IL-23 injection is considered as Day 1. Intradermal injection of 20 μL PBS containing 500 ng recombinant mouse IL-23 into the right ear of anesthetized mice using a 30-gauge needle every other day for 14 days (Day 1, Day 3, Day 5, Day 7, Day 9, Day 11, Day 13), 7 times in total. The G1 normal control group intradermal injected with 20 μL PBS.
Mice in Group 1 and Group 2 were treated with vehicle for 14 days (po, qd, from day 1 to day 14). Mice in Group 3 were treated with 30 mg/kg Cpd. 4 for 14 days (po, qd, from day 1 to day 14). […]
Ear thickness of mice was measured in Day 1, 3, 5, 7, 9, 11, 13 and Day 14. […]

[3] = 50 mg/kg po qd preventive treatment, day 7
[4] = 50 mg/kg po qd therapeutic treatment, day 7
[5] = 50 mg/kg po qd, Cpd. 4 preventive and therapeutic, mesalamine day −1 to day 6, compared with Vehicle
[6] = Cpd. 4 50 mg/kg po qd, preventive and therapeutic, compared with Vehicle, 50 mg/kg
[7] = mesenteric lymph nodes, flow cytometry, day 7, 50 mg/kg therapeutic treatment, compared with vehicle

Compound: O=C(NS(=O)(=O)c1ccc(NC[C@H]2COCCO2)c([N+](=O)[O-])c1)c1ccc(N2CCN(CC3=C(c4ccc(Cl)cc4)CC4(CCC4)CC3)CC2)cc1Oc1cnc2[nH]ccc2c1 [Cpd. 4, (S)-N-((4-(((1,4-dioxan-2-yl)methyl)amino)-3-nitrophenyl)sulfonyl)-2-((1H-pyrrolo[2,3-b]pyridin-5-yl)oxy)-4-(4-((6-(4-chlorophenyl)spiro[3.5]non-6-en-7-yl)methyl)piperazin-1-yl)benzamide]
- colon weight ([1]; 50 mg/kg po qd preventive therapy (day −1 to day 6), day 7): 202.4 ± 3.95 mg
- colon length [1, 3]: 7.81±0.2 cm
- pathological score (colon, H&E) [1, 3]: 2.70±0.80
- colon weight ([1]; 50 mg/kg po qd therapeutic therapy (day 1 to day 6), day 7): 214.4 ± 5.17 mg
- colon length [1, 4]: 7.39±0.12 cm
- pathological score (colon, H&E) [1, 4]: 5.00±1.15
- disease activity index (DAI), clinical score of IBD ([1]; 50 mg/kg po qd, Cpd. 4 preventive (day −1 to day 6) and therapeutic (day 1 to day 6) regimens, mesalamine day −1 to day 6, compared with Vehicle): significantly reducing the clinical score; also recorded: significantly reduced DAI
- colon length (in words) [1, 5]: increased colon length
- colon weight (in words) [1, 5]: significantly decreased colon weight
- body weight loss ([1]; Cpd. 4 50 mg/kg po qd, preventive and therapeutic regimens, compared with Vehicle, 50 mg/kg): improving body weight loss; also recorded: improved body weight loss
- cell number of monocytes in peripheral blood [1, 6]: significantly reduced; also recorded: significantly decreased
- cell number of neutrophils in peripheral blood [1, 6]: significantly reduced; also recorded: significantly decreased
- anemia (red blood cells and hemoglobin in peripheral blood) ([1]; Cpd. 4 50 mg/kg po qd, compared with Vehicle): improved anemia
- fibrosis score (Masson's Trichrome staining of colon) ([1]; Cpd. 4 50 mg/kg therapeutic treatment, compared with Vehicle): significantly reduced
- pathological score (in words) ([1]; Cpd. 4 preventive and therapeutic, compared with Vehicle): significantly decreased
- percentage of IFN-γ secreting CD4+ T cells (Th1 cells) [1, 7]: significantly reduced
- percentage of IL-17A secreting CD4+ T cells (Th17 cells) [1, 7]: significantly reduced
- percentage of NK cells (CD45+CD3−B220−NK1.1+) [1, 7]: significantly reduced
- percentage of activated NK cells (CD45+CD3−B220−NK1.1+CD107a+) [1, 7]: significantly reduced
- percentage of macrophages (CD45+CD3−B220−CD11b+F4/80+) [1, 7]: significantly reduced
- percentage of neutrophils (CD45+CD3−B220−CD11B+LY6G+) [1, 7]: significantly reduced
- ear thickness [2]: significantly reducing the ear thickness; also recorded: significantly reduced
